Tests used:
Type in all cases: biochemical
Conditions in all cases: HeLa S3 lysate, sfGFP/mCherry ratio, 2 hrs at 30° C.
ALK = assay: In vitro transcription-translation (IVTT) reporter assay, ALK test sequence
Excerpt: (§1) All reporter constructs have been cloned into the pT7CFE1-CHis plasmid (ThermoFisher #88860) using Gibson assembly procedures (NEB #E2611L). The parental pT7CFE1-CHis plasmid contains an EMCV IRES at the 5′UTR for translation initiation, a multiple-cloning site (MCS) for gene insertion, an optional C-terminal His-epitope tag, and polyA sequence in the 3′UTR to regulate mRNA stability. All reporters are designed to be inserted at the MCS to include a red fluorescent protein (mCherry), P2A self-cleaving peptide which releases the preceding mCherry protein product, and a fusion open reading frame containing a 3×FLAG epitope, a peptide sequence of interest (TEST), and green fluorescent protein (sfGFP).
(§2) Construct Plasmid Preparation: All plasmids are isolated from MACH1 cells (ThermoFisher) grown overnight in ampicillin-containing luria broth, and purified using ZymoPure Express Plasmid Midiprep Kit (Zymo Research). Constructs are sequenced verified and diluted to a working concentration of 110 ng/μL.
(§3) HeLa S3 Lysate Preparation: HeLa S3 cell pellets are acquired from Ipracell/Ipratech (Belgium) and shipped as 4 mL frozen cell pellets on dry ice for storage at −80° C. until use. The procedure for lysate preparation is as follows. Prepare 1× Lysis Buffer, cold and stored on ice:
(§4) Each preparation takes 8 cell pellets (4 ml packed volume each, approximately 1.0×10^9 cells per pellet). Thaw cell pellets from −80° C. on ice for 90 mins. Lay pellets horizontally on top of the ice and rotate every 30 mins to ensure even thawing. Once thawed, add 4 mL of cold lysis buffer to each pellet, and using a serological pipet, gently pipet up and down to break up clumps. Incubate resuspended cells in ice for an additional 30 mins (plunged into ice). During 30 min incubation, rinse and RNase-zap (Ambion) glass dounces (use loose pestle “A”), gently dry and place on ice until needed. Prepare RNase-free Eppendorf tubes for spinning and for batch storage. Add batch labels to 1.5-1.7 mL RNase-free microcentrifuge tubes (labeling scheme below). Each batch will have an extra 1.5-1.7 mL RNase-free microcentrifuge tube for 40 μL of lysate, label the top of this tube (labeling scheme below). After 30 min incubation, transfer all 8 mL of cell pellet to dounce. Cell lysis is complete after douncing 100 times. Aliquot cell lysis into 1.5-1.7 mL temporary-microcentrifuge tubes. Place tubes in centrifuge with “fins” out, and spin at 1,200 xg for 5 mins. After the first spin use a 1 mL pipet to resuspend each tube and repeat spin. This acts as an additional lysis step, is more vigorous and increases lysate yield. During second spin get liquid N2 and a fresh conical tube on ice.
(§5) After spin is complete, transfer supernatant (lysate) from microcentrifuge tubes into the 50 mL conical tube and keep on ice. Repeat steps 10-14 for all other cell pellets until completed. Once all cell lysate has been transferred to the 50 mL conical tube pipet to mix so the solution is homogenous. Transfer 1 mL of lysate into batch-labeled microcentrifuge tubes and flash freeze in liquid nitrogen. Be sure to pipet up and down to mix throughout transfer step. Place all tubes in the […] for long-term storage.
(§6) In vitro transcription-translation assay setup: Each assay includes a master mix containing lysate and shared components, a 96-well plate containing compound titrations for testing, a 96-well DNA plate with reporter constructs to be tested, 96-well skirted PCR plates, and 96-well flat-bottom, black, fluorescent assay plates. […]

KRAS G12D = assay: In vitro transcription-translation (IVTT) reporter assay, KRAS G12D test sequence
Excerpt: as §1, §2, §3, §4, §5, §6

MYC = assay: In vitro transcription-translation (IVTT) reporter assay, MYC test sequence
Excerpt: as §1, §2, §3, §4, §5, §6

IC50 (ALK) [µM]	IC50 (KRAS G12D) [µM]	IC50 (MYC) [µM]	SMILES
< 10	20 to 30	10 to 20	COc1ccc(C[C@H]2NC[C@H](O)[C@H]2OC(=O)C2COC2)cc1 [V0106, (2R,3S,4S)-4-hydroxy-2-[(4-methoxyphenyl)methyl]pyrrolidin-3-yl oxetane-3-carboxylate]
20 to 30	> 30	> 30	COc1ccc(C[C@H]2NC[C@H](O)[C@H]2OC(=O)C2CNC2)cc1 [V0107, (2R,3S,4S)-4-hydroxy-2-[(4-methoxyphenyl)methyl]pyrrolidin-3-yl azetidine-3-carboxylate]
< 10	< 10	< 10	COc1ccc(C[C@H]2NC[C@H](O)[C@H]2OC(=O)CC2COC2)cc1 [V0111, (2R,3S,4S)-4-hydroxy-2-[(4-methoxyphenyl)methyl]pyrrolidin-3-yl 2-(oxetan-3-yl)acetate]
< 10	< 10	< 10	COc1ccc(C[C@H]2NC[C@H](O)[C@H]2OC(=O)CC2CC2)cc1 [V0113, (2R,3S,4S)-4-hydroxy-2-[(4-methoxyphenyl)methyl]pyrrolidin-3-yl 2-cyclopropylacetate]
< 10	> 30	< 10	COc1ccc(C[C@H]2NC[C@H](O)[C@H]2OC(=O)CC[C@@H]2NC(=O)CNC2=O)cc1 [V000144, (2R,3S,4S)-4-hydroxy-2-[(4-methoxyphenyl)methyl]pyrrolidine-3-yl 3-[(2S)-3,6-dioxopiperazin-2-yl]propanoate]
> 30	> 30	> 30	COc1ccc(C[C@H]2NC[C@H](O)[C@H]2OC(=O)c2ccc3onc(N)c3c2)cc1 [V000148, (2R,3S,4S)-4-hydroxy-2-[(4-methoxyphenyl)methyl]pyrrolidin-3-yl 3-amino-1,2-benzoxazole-5-carboxylate]
> 30	> 30	> 30	COc1ccc(C[C@H]2NC[C@H](O)[C@H]2OC(=O)C2CN(Cc3ccccc3)C2)cc1 [V000173, (2R,3S,4S)-4-hydroxy-2-[(4-methoxyphenyl)methyl]pyrrolidin-3-yl 1-benzylazetidine-3-carboxylate]
> 30	> 30	> 30	COc1ccc(C[C@H]2NC[C@H](O)[C@H]2OC(=O)C2(OCc3ccccc3)CNC2)cc1 [V000192, (2R,3S,4S)-4-hydroxy-2-(4-methoxybenzyl) pyrrolidin-3-yl 3-(benzyloxy)azetidine-3-carboxylate]
< 10	> 30	< 10	COc1ccc(C[C@H]2NC[C@H](O)[C@H]2OC(=O)C2CCOC2)cc1 (stereo partly drawn) [V186761, (2R,3S,4S)-4-hydroxy-2-[(4-methoxyphenyl)methyl]pyrrolidin-3-yl oxolane-3-carboxylate]
> 30	> 30	> 30	COc1ccc(C[C@H]2NC[C@H](O)[C@H]2OC(=O)C2CN(CC3COC3)C2)cc1 [V186772, (2R,3S,4S)-4-hydroxy-2-[(4-methoxyphenyl)methyl]pyrrolidin-3-yl 1-(oxetan-3-ylmethyl)azetidine-3-carboxylate]
> 30	> 30	> 30	CCC1(C(=O)O[C@@H]2[C@@H](O)CN[C@@H]2Cc2ccc(OC)cc2)COC1 [V186781, (2R,3S,4S)-4-hydroxy-2-[(4-methoxyphenyl)methyl]pyrrolidin-3-yl 3-ethyloxetane-3-carboxylate]
< 10	< 10	< 10	COCCOCC(=O)O[C@@H]1[C@@H](O)CN[C@@H]1Cc1ccc(OC)cc1 [V186783]
< 10	> 30	> 30	COc1ccc(C[C@H]2NC[C@H](O)[C@H]2OC(=O)C(C)(C)O)cc1 [V186785, (2R,3S,4S)-4-hydroxy-2-[(4-methoxyphenyl)methyl]pyrrolidin-3-yl 2-hydroxy-2-methylpropanoate]
< 10	> 30	> 30	COc1ccc(C[C@H]2NC[C@H](O)[C@H]2OC(=O)[C@H]2CCCO2)cc1 [V186824, (2R,3S,4S)-4-hydroxy-2-[(4-methoxyphenyl)methyl]pyrrolidin-3-yl (2R)-oxolane-2-carboxylate]
< 10	20 to 30		COc1ccc(C[C@H]2NC[C@H](O)[C@H]2OC(=O)CNc2c(NCc3ccccc3)c(=O)c2=O)cc1 [V187517, (2R,3S,4S)-4-hydroxy-2-[(4-methoxyphenyl)methyl]pyrrolidin-3-yl 2-{[2-(benzylamino)-3,4-dioxocyclobut-1-en-1-yl]amino}acetate; trifluoroacetic acid]

More lines, now with the values behind:

SMILES	IC50 (ALK) [µM]	IC50 (KRAS G12D) [µM]	IC50 (MYC) [µM]
C=C(F)C(=O)O[C@@H]1[C@@H](O)CN[C@@H]1Cc1ccc(OC)cc1 [V0081, (2R,3S,4S)-4-hydroxy-2-[(4-methoxyphenyl)methyl]pyrrolidin-3-yl 2-fluoroprop-2-enoate]	> 30	> 30	> 30
COc1ccc(C[C@H]2NC[C@H](O)[C@H]2OC(=O)c2ccc(C(=O)C(F)(F)F)cc2)cc1 [V0092, (2R,3S,4S)-4-hydroxy-2-[(4-methoxyphenyl)methyl]pyrrolidin-3-yl 4-(2,2,2-trifluoroacetyl)benzoate]	> 30	> 30	> 30
COc1ccc(C[C@H]2NC[C@H](O)[C@H]2OC(=O)c2ccc(S(=O)(=O)N(C)C)cc2)cc1 [V000198, (2R,3S,4S)-4-hydroxy-2-[(4-methoxyphenyl)methyl]pyrrolidin-3-yl 4-(dimethylsulfamoyl)benzoate]	> 30	> 30	> 30
COc1ccc(C[C@H]2NC[C@H](O)[C@H]2OC(=O)CNc2c(N)c(=O)c2=O)cc1 [V000215, (2R,3S,4S)-4-hydroxy-2-[(4-methoxyphenyl)methyl]pyrrolidin-3-yl 2-[(2-amino-3,4-dioxocyclobut-1-en-1-yl)amino]acetate]	< 10	< 10	< 10
COc1ccc(C[C@H]2NC[C@H](O)[C@H]2OC(=O)C2CCS(=N)(=O)CC2)cc1 (stereo partly drawn) [V186712, (2R,3S,4S)-4-hydroxy-2-[(4-methoxyphenyl)methyl]pyrrolidin-3-yl (1 s)-1-imino-1-oxo-1lambda6-thiane-4-carboxylate]	> 30	> 30	> 30
COc1ccc(C[C@H]2NC[C@H](O)[C@H]2OC(=O)CN)cc1 [V186760, (2R,3S,4S)-4-hydroxy-2-[(4-methoxyphenyl)methyl]pyrrolidin-3-yl 2-aminoacetate]	< 10	20 to 30	< 10
COc1ccc(C[C@H]2NC[C@H](O)[C@H]2OC(=O)C2CC(F)(F)C2)cc1 [V186775, (2R,3S,4S)-4-hydroxy-2-[(4-methoxyphenyl)methyl]pyrrolidin-3-yl 3,3-difluorocyclobutane-1-carboxylate]	< 10	20 to 30	< 10
COc1ccc(C[C@H]2NC[C@H](O)[C@H]2OC(=O)CCCCC(C)C)cc1 [V186779]	< 10	< 10	< 10
COc1ccc(C[C@H]2NC[C@H](O)[C@H]2OC(=O)CC(C)(C)O)cc1 [V186784, (2R,3S,4S)-4-hydroxy-2-[(4-methoxyphenyl)methyl]pyrrolidin-3-yl 3-hydroxy-3-methylbutanoate]	< 10	10 to 20	< 10
CC(=O)O[C@@H]1[C@@H](O)CN[C@@H]1Cc1ccccc1 [V186810, (2R,3S,4S)-2-benzyl-4-hydroxy pyrrolidin-3-yl acetate]	< 10	< 10	< 10
COc1ccc(C[C@H]2NC[C@H](O)[C@H]2OC(=O)COC2CC(F)(F)C2)cc1 [V187171, (2R,3S,4S)-4-hydroxy-2-[(4-methoxyphenyl)methyl]pyrrolidin-3-yl 2-(3,3-difluorocyclobutoxy)acetate; trifluoroacetic acid]	< 10	< 10	

— US20250091989A1, “SMALL MOLECULE PROTEIN SYNTHESIS MODULATORS” (Interdict Bio, Inc., priority 2023, published 2025)
